The source of these data is patent US20230330034A1, “COVALENTLY CROSS-LINKED GLYCOSYLATED MUCIN NANOPARTICLES AS SYSTEMS FOR THE DELIVERY AND RELEASE OF ACTIVE INGREDIENTS AND BIOMOLECULES” (priority 2020, published 2023).

pIC50: −log10 of the molar value.

Data set [1] has as its system H358 lung cancer cell line. Nature of the data set: Antiproliferative activity, % of cell viability. Particulars: Homo sapiens, NCI-H358, read-out: 1050. It is filed as cell-based.
The conditions of data set [2]: PAMPA, 5 h, 200 µM. In general terms: PAMPA measures passive passage across an artificial lipid membrane.

On to `COc1cccc2c1C(=O)c1c(O)c3c(c(O)c1C2=O)C[C@@](O)(C(=O)CO)C[C@@H]3O[C@H]1C[C@H](N)[C@H](O)[C@H](C)O1` [doxorubicin], for which, in data set [1], the pIC50 was 9.52.

On to `CC(C)NCC(O)COc1cccc2ccccc12` (centres unmarked) [propranolol], for which, in data set [2], the “Ca (t)” value amounted to 2.01 µM, the “Cd(t)” value was found to be 6.6 µM and the Ceq came out at 3.85 µM.

On to `CC(=O)Nc1cccc(-n2c(=O)n(C3CC3)c(=O)c3c(Nc4ccc(I)cc4F)n(C)c(=O)c(C)c32)c1` [trametinib], for which the pIC50 in data set [1] is 8.15.
